Test results reported in patent US11999727B2 (Tango Therapeutics, Inc., priority 2020, dated 2024).
pIC50: −log10 of the molar value.

How the values were obtained:
PRMT5 [1] = target: T1, PRMT5 (Homo sapiens, UniProt O14744); test: PRMT5 biochemical IC50 assay with SAM as cofactor; conditions: PRMT5, SAM as cofactor; read-out: SAM IC50
T1 construct: purchased Viva (custom protein)

PRMT5 [2] = target: T1, PRMT5; test: PRMT5 biochemical IC50 assay with no cofactor; conditions: PRMT5, no cofactor; read-out: No Cofactor/rel IC50
From the text: Table 1 indicates IC50 values (μM) against PRMT5 for exemplary compounds in the presence of SAM as cofactor, with no cofactor, and with MTA as cofactor, respectively (columns 4-6). […] Ki values can be calculated from the IC50 values as described in the Examples section. As detailed in the Examples section, for the assay performed in the presence of SAM, IC50=Ki×1.5 (Ki=IC50/1.5).

PRMT5 [3] = target: T1, PRMT5; test: PRMT5 biochemical IC50 assay with MTA as cofactor; conditions: PRMT5, MTA as cofactor; read-out: MTA IC50
[4] = system: HAP1 MTAP-intact cell line; test: SDMA in-cell western assay, HAP1 MTAP-intact; assay type: cell-based; conditions: Homo sapiens, HAP1, SDMA in-cell western, HAP1 MTAP-intact; read-out: MTAP HAP1 intact IC50
Summary of the method: (§1)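 Compounds were tested in HAP1 cells differing only in MTAP status (endogenous expression versus null). Cellular SDMA levels were then measured by in-cell western, giving an IC50 in each background.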

[5] = system: HAP1 MTAP-deleted cell line; test: SDMA in-cell western assay, HAP1 MTAP-deleted; assay type: cell-based; conditions: for pIC50: Homo sapiens, HAP1, SDMA in-cell western, HAP1 MTAP-deleted, read-out: HAP 1 MTAP deleted IC50; for MTAP intact/deleted ratio: IC50 ratio HAP1 MTAP-intact / HAP1 MTAP-deleted, SDMA in-cell western
Summary of the method: as §1

[6] = system: HAP1 MTAP-deleted cell line; test: Viability assay, MTAP-deleted cell line; assay type: cell-based; conditions: Homo sapiens, HAP1, viability assay, MTAP-deleted cell line; read-out: HAP1 MTAP deleted viability
From the text: Table 1 additionally indicates IC50 values in a viability assay for the MTAP-deleted cell line (column 10), indicating the effect of treatment with compound on cell survival.

T1 sequence (O14744 whole entry): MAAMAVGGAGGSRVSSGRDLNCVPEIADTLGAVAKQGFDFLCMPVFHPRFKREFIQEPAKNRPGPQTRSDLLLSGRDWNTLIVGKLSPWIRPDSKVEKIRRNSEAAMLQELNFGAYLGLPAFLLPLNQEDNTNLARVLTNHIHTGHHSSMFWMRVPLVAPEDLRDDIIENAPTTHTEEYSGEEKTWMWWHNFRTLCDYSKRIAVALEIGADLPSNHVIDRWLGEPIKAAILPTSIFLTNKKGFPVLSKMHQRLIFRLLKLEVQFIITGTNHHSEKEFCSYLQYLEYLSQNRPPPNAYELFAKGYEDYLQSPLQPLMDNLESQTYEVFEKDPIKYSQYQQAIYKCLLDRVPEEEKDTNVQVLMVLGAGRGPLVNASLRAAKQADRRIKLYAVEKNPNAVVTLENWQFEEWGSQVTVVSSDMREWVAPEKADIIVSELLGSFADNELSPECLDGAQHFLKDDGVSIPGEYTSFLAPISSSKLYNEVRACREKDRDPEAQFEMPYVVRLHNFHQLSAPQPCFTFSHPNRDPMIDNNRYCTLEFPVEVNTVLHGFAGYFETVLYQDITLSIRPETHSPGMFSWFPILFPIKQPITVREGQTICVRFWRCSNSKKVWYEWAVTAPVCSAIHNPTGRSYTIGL
T1 sequence (Q9BQA1 whole entry partner): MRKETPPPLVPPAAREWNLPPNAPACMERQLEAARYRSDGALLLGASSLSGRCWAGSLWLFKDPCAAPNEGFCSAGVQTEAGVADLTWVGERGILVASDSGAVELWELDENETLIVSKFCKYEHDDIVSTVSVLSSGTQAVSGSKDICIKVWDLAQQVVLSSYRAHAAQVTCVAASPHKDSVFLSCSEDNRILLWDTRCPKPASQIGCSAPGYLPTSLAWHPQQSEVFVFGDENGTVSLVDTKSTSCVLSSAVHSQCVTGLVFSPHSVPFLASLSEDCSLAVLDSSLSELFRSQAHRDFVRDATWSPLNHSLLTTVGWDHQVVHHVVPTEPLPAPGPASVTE

How did the pIC50 (PRMT5 [1]) turn out when `Cc1cc(NC(=O)C(=O)N2C[C@@H](C)CC[C@@H]2c2cccc3[nH]cnc23)cnc1N` (single isomer, unassigned) [Compound 964] was run?
The pIC50 was less than 6.30.

What about the pIC50 (PRMT5 [2]) of the same molecule?
Its pIC50 is less than 6.30.

And the pIC50 (PRMT5 [3])?
Its pIC50 is less than 6.30.

What about the pIC50 [4] of the same molecule?
The pIC50 was less than 6.00.

And the pIC50 [5]?
The pIC50 was less than 6.00.

What about the MTAP intact/deleted ratio [5] of the same molecule?
Its MTAP intact/deleted ratio is “C (an IC50 ratio of less than 3 fold)”.

And the pIC50 [6]?
The pIC50 was less than 5.00.

With `COc1ncc(NC(=O)C(=O)N2C[C@H](C)CC[C@H]2c2cc(Cl)cc(Cl)c2)cc1C(N)=O` (single isomer, unassigned) [Compound 965] as the molecule, how does the pIC50 (PRMT5 [1]) read?
Its pIC50 is less than 6.30.

And the pIC50 (PRMT5 [2])?
The pIC50 was less than 6.30.

And the pIC50 (PRMT5 [3])?
The pIC50 was less than 6.30.

What about the pIC50 [4] of the same molecule?
The pIC50 was less than 6.00.

And the pIC50 [5]?
The pIC50 was less than 6.00.

What about the MTAP intact/deleted ratio [5] of the same molecule?
The MTAP intact/deleted ratio was “B (an IC50 ratio greater than or equal to 3 fold but lower than 10 fold)”.

And the pIC50 [6]?
Its pIC50 is less than 5.00.

`CCc1cc(NC(=O)C(=O)N2C[C@H](C)CC[C@H]2c2cc(Cl)cc(Cl)c2)cnc1N` (single isomer, unassigned) [Compound 966] was tested. Which pIC50 (PRMT5 [1]) did it give?
The pIC50 was less than 6.30.

And the pIC50 (PRMT5 [2])?
The pIC50 was less than 6.30.

What about the pIC50 (PRMT5 [3]) of the same molecule?
The pIC50 was 6.30 to 7.30.

And the pIC50 [4]?
The pIC50 was less than 6.00.

What about the pIC50 [5] of the same molecule?
The pIC50 was less than 6.00.

And the MTAP intact/deleted ratio [5]?
Its MTAP intact/deleted ratio is “B (an IC50 ratio greater than or equal to 3 fold but lower than 10 fold)”.

What about the pIC50 [6] of the same molecule?
The pIC50 was less than 5.00.

With `CCc1cc(NC(=O)C(=O)N2C[C@@H](C)CC[C@@H]2c2cc3[nH]ncc3s2)cnc1N` (single isomer, unassigned) [Compound 967] as the molecule, how does the pIC50 (PRMT5 [1]) read?
Its pIC50 is less than 6.30.

What about the pIC50 (PRMT5 [2]) of the same molecule?
Its pIC50 is less than 6.30.

What about the pIC50 (PRMT5 [3]) of the same molecule?
Its pIC50 is less than 6.30.

And the pIC50 [4]?
Its pIC50 is less than 6.00.

And the pIC50 [5]?
Its pIC50 is less than 6.00.

What about the MTAP intact/deleted ratio [5] of the same molecule?
The MTAP intact/deleted ratio was “B (an IC50 ratio greater than or equal to 3 fold but lower than 10 fold)”.

And the pIC50 [6]?
Its pIC50 is less than 5.00.

`COc1ncc(NC(=O)C(=O)N2C[C@@H](C)CC[C@@H]2c2cc3cn[nH]c3s2)cc1C(N)=O` (single isomer, unassigned) [Compound 968, 2-methoxy-5-(2-(5-methyl-2-(1H-thieno[2,3-c]pyrazol-5-yl)piperidin-1-yl)-2-oxoacetamido)nicotinamide] was tested. Which pIC50 (PRMT5 [1]) did it give?
The pIC50 was 6.30 to 7.30.

And the pIC50 (PRMT5 [2])?
The pIC50 was greater than 7.30.

And the pIC50 (PRMT5 [3])?
The pIC50 was greater than 7.30.

What about the pIC50 [4] of the same molecule?
Its pIC50 is 6.00 to 7.00.

And the pIC50 [5]?
The pIC50 was greater than 7.00.

And the MTAP intact/deleted ratio [5]?
Its MTAP intact/deleted ratio is “A (an IC50 ratio greater than or equal to 10 fold)”.

What about the pIC50 [6] of the same molecule?
Its pIC50 is greater than 6.00.

Which results are given for `Cc1cc(NC(=O)C(=O)N2C[C@H](C)CC[C@H]2c2cn[nH]c2)cnc1N` (single isomer, unassigned) [Compound 969]?
pIC50 (PRMT5 [1]): < 6.30; pIC50 (PRMT5 [2]): < 6.30; pIC50 (PRMT5 [3]): < 6.30; pIC50 [4]: < 6.00; pIC50 [5]: < 6.00; MTAP intact/deleted ratio [5]: C (an IC50 ratio of less than 3 fold); pIC50 [6]: < 5.00

`C[C@@H]1CC[C@@H](c2cn[nH]c2)N(C(=O)C(=O)Nc2cncc(C(N)=O)c2)C1` (single isomer, unassigned) [Compound 970] was tested. Which pIC50 (PRMT5 [1]) did it give?
Its pIC50 is less than 6.30.

What about the pIC50 (PRMT5 [2]) of the same molecule?
The pIC50 was less than 6.30.

What about the pIC50 (PRMT5 [3]) of the same molecule?
Its pIC50 is less than 6.30.

And the pIC50 [4]?
Its pIC50 is less than 6.00.

And the pIC50 [5]?
Its pIC50 is less than 6.00.

What about the MTAP intact/deleted ratio [5] of the same molecule?
The MTAP intact/deleted ratio was “C (an IC50 ratio of less than 3 fold)”.

What about the pIC50 [6] of the same molecule?
Its pIC50 is less than 5.00.

What does the source list for `Cc1cc(NC(=O)C(=O)N2C[C@@H](C)CC[C@@H]2c2ccc3sc(C(F)(F)F)nc3c2)cnc1N` (single isomer, unassigned) [Compound 972]?
pIC50 (PRMT5 [1]): 6.30 to 7.30; pIC50 (PRMT5 [2]): 6.30 to 7.30; pIC50 (PRMT5 [3]): > 7.30; pIC50 [4]: > 7.00; pIC50 [5]: > 7.00; MTAP intact/deleted ratio [5]: B (an IC50 ratio greater than or equal to 3 fold but lower than 10 fold); pIC50 [6]: > 6.00

`Cc1ccc([C@H]2CC(F)(F)[C@H](C)CN2C(=O)C(=O)Nc2cnc(N)c(C)c2)cn1` (single isomer, unassigned) [Compound 973] was tested. Which pIC50 (PRMT5 [1]) did it give?
Its pIC50 is 6.30 to 7.30.

And the pIC50 (PRMT5 [2])?
The pIC50 was 6.30 to 7.30.

What about the pIC50 (PRMT5 [3]) of the same molecule?
The pIC50 was greater than 7.30.

What about the pIC50 [4] of the same molecule?
The pIC50 was 6.00 to 7.00.

And the pIC50 [5]?
The pIC50 was greater than 7.00.

And the MTAP intact/deleted ratio [5]?
The MTAP intact/deleted ratio was “A (an IC50 ratio greater than or equal to 10 fold)”.

And the pIC50 [6]?
The pIC50 was 5.00 to 6.00.

Which results are given for `Cc1ccc([C@H]2CC(F)(F)[C@H](C)CN2C(=O)C(=O)Nc2cncc(C(N)=O)c2)cn1` (single isomer, unassigned) [Compound 974]?
pIC50 (PRMT5 [1]): 6.30 to 7.30; pIC50 (PRMT5 [2]): 6.30 to 7.30; pIC50 (PRMT5 [3]): > 7.30; pIC50 [4]: < 6.00; pIC50 [5]: > 7.00; MTAP intact/deleted ratio [5]: A (an IC50 ratio greater than or equal to 10 fold); pIC50 [6]: 5.00 to 6.00
